In PMC10141604, “Small-Molecule Inhibition of Androgen Receptor Dimerization as a Strategy against Prostate Cancer” (ACS Central Science, 2023):

Assays:
[1] = target: FL-AR^F876L (Homo sapiens, UniProt P10275, F877L); experiment: Dual-luciferase reporter assay for FL-AR F876L in PC3 cells
Protocol: Luciferase Reporter Assays for FL -ARF876L and FL-ARF876L/T877A
constructed on the basis of the human full length wild type AR plasmid pCMV -hAR
transfected with 70 ng/well of FL -AR plasmid together with 24 ng of ARR2PB -Luc, and 5 ng of Renilla. After 1 day incubation at 37 °C , the antagonistic models were employed
After another 24 h incubation, the luciferase activities were determined by the Dual -Glo Luciferase system (#E1910, Promega) according to the

[2] = target: T1, PR (Homo sapiens, UniProt P06401); experiment: Luciferase reporter assay for PR (PC3 cells); type: cell-based; details: 10 μM, 10 nM progesterone
T1 construct: host or cells: PC3
T1 sequence (P06401 1-933): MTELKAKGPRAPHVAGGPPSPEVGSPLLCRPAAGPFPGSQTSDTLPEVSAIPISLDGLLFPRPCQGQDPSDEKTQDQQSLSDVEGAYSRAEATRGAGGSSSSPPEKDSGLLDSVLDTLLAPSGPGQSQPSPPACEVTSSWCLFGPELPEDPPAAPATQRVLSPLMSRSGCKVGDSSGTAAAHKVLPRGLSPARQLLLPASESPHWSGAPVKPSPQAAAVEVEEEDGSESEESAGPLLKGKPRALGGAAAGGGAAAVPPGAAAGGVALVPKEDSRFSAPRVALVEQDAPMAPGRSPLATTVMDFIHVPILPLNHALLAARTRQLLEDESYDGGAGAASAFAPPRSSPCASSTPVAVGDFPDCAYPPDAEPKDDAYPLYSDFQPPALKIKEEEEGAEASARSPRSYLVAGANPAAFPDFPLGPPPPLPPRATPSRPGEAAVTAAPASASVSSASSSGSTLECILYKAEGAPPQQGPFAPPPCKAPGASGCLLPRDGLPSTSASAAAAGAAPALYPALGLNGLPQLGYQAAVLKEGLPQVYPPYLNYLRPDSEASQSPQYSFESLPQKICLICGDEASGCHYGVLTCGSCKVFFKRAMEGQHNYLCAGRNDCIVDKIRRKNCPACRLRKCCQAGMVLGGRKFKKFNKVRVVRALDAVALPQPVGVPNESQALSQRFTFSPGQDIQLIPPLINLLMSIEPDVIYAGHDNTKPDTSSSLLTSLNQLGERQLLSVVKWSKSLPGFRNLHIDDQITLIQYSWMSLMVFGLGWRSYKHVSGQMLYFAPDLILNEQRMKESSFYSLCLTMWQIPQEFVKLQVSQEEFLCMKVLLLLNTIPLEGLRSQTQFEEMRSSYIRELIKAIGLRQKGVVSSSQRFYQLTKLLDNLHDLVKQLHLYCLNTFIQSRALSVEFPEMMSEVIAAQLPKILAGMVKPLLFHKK
Protocol: Luciferase Reporter Assays for PR, GR, and MR
PC3, HeLa, and HEK293T cells were cultured using 5% CSS RPMI-1640, 5% CSS RPMI-1640 and 10% FBS DMEM media in 96-well plates for 24 h, respectively. For PR induction, PC3 (1 × 10^4 cells/well) were transfected with 50 ng pcDNA3-PRB (#89130, Addgene), 24 ng pGL4.36[luc2P MMTV Hygro] (Promega) and 5 ng Renilla using HG-TransGeneTM transfection reagent (#TG-10012, Genomeditech) for 4 h. For GR induction, Hela (1 × 10^4 cells/well) were transfected with 71 ng pCMV -GR11 (#89105, Addgene), 24 ng pGL4.36[luc2P MMTV Hygro] (Promega) and 5 ng Renilla using lip3000 transfection reagent (#L3000075, Thermofisher) for 24 h. For MR induction, HEK293T (1 × 10^4 cells/well) were transfected with 71 ng pCMV-MR gifted by Liu et al. 28, 24 ng of pGL4.36[luc2P MMTV Hygro] (Promega) and 5 ng Renilla using lip3000 transfec tion reagent for 24 h. For the antagonistic models, 10 nM /well progesterone for PC3 cells , 1 nM/well dexamethasone for HeLa, and 5 nM/well aldosterone for HEK293T cells were added to stimulate the cells. Meanwhile, each cell line was treated with a series concentration of compounds (0.4, 2, and 10 μM). For the agonistic models, the cells were directly treated with the compounds without any hormones. Endogenous hormones progesterone, dexamethasone, and aldosterone were considered as agonists for PR, GR, and MR, respectively. The luciferase activities were assessed using the Dual-Glo Luciferase system (#E1910, Promega). […]

[3] = tested on: NIH-3T3; experiment: MTT cell viability assay, NIH-3T3; type: cell-based, murine; details: 72 h
Protocol: 3-(4,5-dimethythiazol-2-yl)-2,5-diphenyl-2-H-tetrazolium bromide (MTT) colorimetric assay was employed to investigate cell viability. Cells were seeded into 96-well plates with 2-5× 10^3 cells per well (5× 10^3 cells/well for LNCaP, 22RV1, NIH-3T3, GES-1, Chang, […]
NCI-H1299, U2OS, U87) for 1 day incubation at 37 °C. Then, the cells were treated with various concentrations of compounds (22.86 nM - 50 μM) and incubated for 72 h. Then, 10 μl MTT (5 mg/ml) was added into each well and incubated for 4 h. Afterwards, 100 μl of triplex 10% SDS-0.1% HCl-phosophate-buffered saline (PBS) solutions was added into each well and incubated for overnight. The absorbance at 570 nm was measured (Eon, Bioteck, Winooski, VT). […]

Sequence of FL-AR^F876L (P10275 whole entry F877L): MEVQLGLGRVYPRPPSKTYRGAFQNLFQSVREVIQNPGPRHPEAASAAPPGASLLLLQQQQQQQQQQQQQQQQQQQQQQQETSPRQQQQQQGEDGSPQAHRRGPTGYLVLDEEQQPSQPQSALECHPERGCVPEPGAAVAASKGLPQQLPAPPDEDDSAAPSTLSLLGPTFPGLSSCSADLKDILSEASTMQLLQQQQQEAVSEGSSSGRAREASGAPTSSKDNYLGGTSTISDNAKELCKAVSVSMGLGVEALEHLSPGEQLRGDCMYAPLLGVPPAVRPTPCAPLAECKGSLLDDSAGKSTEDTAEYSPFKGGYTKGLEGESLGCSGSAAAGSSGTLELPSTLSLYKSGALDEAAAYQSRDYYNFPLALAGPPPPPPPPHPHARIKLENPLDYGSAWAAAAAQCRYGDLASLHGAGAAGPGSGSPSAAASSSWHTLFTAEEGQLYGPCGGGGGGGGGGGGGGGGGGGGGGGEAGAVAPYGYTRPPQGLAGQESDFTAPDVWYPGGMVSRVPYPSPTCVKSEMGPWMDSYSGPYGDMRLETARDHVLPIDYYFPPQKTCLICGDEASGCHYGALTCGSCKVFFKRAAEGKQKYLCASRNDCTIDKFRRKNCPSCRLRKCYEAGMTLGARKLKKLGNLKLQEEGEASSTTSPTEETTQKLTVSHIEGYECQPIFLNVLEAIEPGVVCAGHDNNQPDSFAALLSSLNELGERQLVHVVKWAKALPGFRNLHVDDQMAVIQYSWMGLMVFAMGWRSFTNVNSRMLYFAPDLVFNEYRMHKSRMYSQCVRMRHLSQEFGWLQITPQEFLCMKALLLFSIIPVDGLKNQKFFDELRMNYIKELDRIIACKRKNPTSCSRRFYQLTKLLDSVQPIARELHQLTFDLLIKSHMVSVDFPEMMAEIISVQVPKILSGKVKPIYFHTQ

Structure (SMILES)	IC50 [1] [µM]	PR antagonistic activity [2]	cytotoxicity against NIH-3T3 [3]
CC(=O)Cc1nsc(NC(=O)c2cc(-c3cccc(C(F)(F)F)c3)oc2C)n1 [Compound M17-B15]	0.16	moderate	negligible cytotoxicity
CNC(=O)c1ccc(N2C(=S)N(c3ccc(C#N)c(C(F)(F)F)c3)C(=O)C2(C)C)cc1F [Enz, enzalutamide, reference compound]	–	moderate	negligible cytotoxicity
